In ChEMBL document CHEMBL1201862, “PubChem BioAssay data set” (2004):
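Five compound concentrations were applied to cells in 96-well plates for 48 hours; endpoints were derived by simple linear interpolation of the resulting dose-response curve. At the GI50, growth is halved.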 Calls of active or inactive are those of the source. Rule as the data show it: active = GI50 up to about 1.1 µM and inactive = higher.

Columns and labels:
Assay in all cases: inhibition of tumour cell growth, NCI panel, 48 h
786-0 = tested on: 786-0
ACHN = tested on: ACHN
EKVX = tested on: EKVX
HCC 2998 = tested on: HCC 2998
HL-60 = tested on: HL-60
Hs-578T = tested on: Hs-578T
NCI-H460 = tested on: NCI-H460
NCI-H522 = tested on: NCI-H522
OVCAR-4 = tested on: OVCAR-4
PC-3 = tested on: PC-3
SK-MEL-5 = tested on: SK-MEL-5
SW-620 = tested on: SW-620
T47D = tested on: T47D
TK-10 = tested on: TK-10
U-251 = tested on: U-251
UACC-62 = tested on: UACC-62
UO-31 = tested on: UO-31
SNB-75 = tested on: SNB-75
OVCAR-8 = tested on: OVCAR-8

Measured: GI50

O=C1OCC2(CO1)CC1C=CC2C1 (stereo not drawn)
inactive: 786-0 > 100 µM | ACHN > 100 µM | EKVX > 100 µM | HCC 2998 > 100 µM | HL-60 > 100 µM | Hs-578T > 100 µM | NCI-H460 > 100 µM | NCI-H522 > 100 µM | OVCAR-4 > 100 µM | PC-3 > 100 µM | SK-MEL-5 > 100 µM | SW-620 > 100 µM | T47D > 100 µM | TK-10 > 100 µM | U-251 > 100 µM | UACC-62 > 100 µM | UO-31 > 100 µM

CCCCCCN1C(=O)CC(=O)N(CCCCCC)S1(=O)=O
inactive: 786-0 18.5 µM | EKVX 20.8 µM | HL-60 24.8 µM | Hs-578T 22 µM | NCI-H460 31.5 µM | NCI-H522 12.9 µM | OVCAR-4 20 µM | PC-3 23 µM | SK-MEL-5 19.8 µM | SNB-75 17.9 µM | SW-620 19.1 µM | T47D 64.3 µM | TK-10 19.1 µM | U-251 17.6 µM | UACC-62 17.3 µM | UO-31 1.56 µM

Cc1ccc(Nc2nc3c(=O)n(C)c(=O)n(C)c3nc2Nc2ccc(C)cc2)cc1
inactive: 786-0 6.04 µM | ACHN 3.46 µM | EKVX 16 µM | HCC 2998 17.5 µM | HL-60 9.66 µM | Hs-578T 25.8 µM | NCI-H460 28.8 µM | NCI-H522 1.15 µM | OVCAR-4 11.1 µM | OVCAR-8 13.6 µM | PC-3 14.7 µM | SK-MEL-5 16.4 µM | SNB-75 15.4 µM | SW-620 1.74 µM | T47D 15.5 µM | TK-10 16.4 µM | U-251 16.3 µM | UACC-62 12.3 µM | UO-31 12.1 µM

O/N=C\c1c(O)ccc2ccccc12
inactive: 786-0 46.2 µM | ACHN 24.8 µM | EKVX 33 µM | HCC 2998 31.7 µM | HL-60 14.7 µM | Hs-578T > 100 µM | NCI-H460 44.7 µM | OVCAR-8 9.12 µM | PC-3 88.3 µM | SK-MEL-5 46.7 µM | SNB-75 41.8 µM | SW-620 73.6 µM | T47D 27.8 µM | TK-10 40.4 µM | U-251 51.8 µM | UACC-62 41 µM
